In publication PMC7874188, “Mucoromycotina Fungi Possess the Ability to Utilize Plant Sucrose as a Carbon Source: Evidence From Gongronella sp. w5” (Frontiers in Microbiology, 2021) one finds Km data, which are given here for one compound.

This experiment has as its system T1, GspInv.
T1 construct: native, purified from w5 mycelia cytoplasm (High Q, Sephacryl S100); untagged
Put plainly: invertase hydrolysis kinetics, […] substrate. Format: biochemical, Gongronella sp. w5. The note with it: pH 5.0 citrate-Na2HPO4, optimal temperature; constant printed only as "substrate affinity".

By Km is commonly meant the substrate concentration at which the rate is half of its maximum. Take `OC[C@H]1O[C@@](CO)(O[C@H]2O[C@H](CO)[C@@H](O)[C@H](O)[C@H]2O)[C@@H](O)[C@@H]1O` [sucrose]: the Km was determined as 3.1 mM.
